Our source for the IKZF2 % protein reduction values is US11192877B2, “3-(5-hydroxy-1-oxoisoindolin-2-yl)piperidine-2,6-dione derivatives and uses thereof” (Novartis AG, priority 2018, dated 2021).

SMILES strings stand for the structures.

Sequence of IKZF2 (Helios) (Q9UKS7 whole entry): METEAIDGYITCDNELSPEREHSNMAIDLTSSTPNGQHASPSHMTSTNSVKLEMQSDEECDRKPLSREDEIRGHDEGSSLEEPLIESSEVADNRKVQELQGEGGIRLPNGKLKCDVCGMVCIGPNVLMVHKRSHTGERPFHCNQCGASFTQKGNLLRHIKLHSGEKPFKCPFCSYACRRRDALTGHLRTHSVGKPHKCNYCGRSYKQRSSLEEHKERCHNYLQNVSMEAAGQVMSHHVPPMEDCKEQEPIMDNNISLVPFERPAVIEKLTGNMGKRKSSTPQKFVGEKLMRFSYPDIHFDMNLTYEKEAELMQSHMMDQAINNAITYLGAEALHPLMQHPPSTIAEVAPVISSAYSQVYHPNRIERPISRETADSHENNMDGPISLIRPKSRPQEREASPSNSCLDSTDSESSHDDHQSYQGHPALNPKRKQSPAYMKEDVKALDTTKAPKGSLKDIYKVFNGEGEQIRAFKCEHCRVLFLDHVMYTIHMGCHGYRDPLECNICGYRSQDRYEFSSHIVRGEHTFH
Sequence of IKZF2 (Helios) (Q96SW2 whole entry): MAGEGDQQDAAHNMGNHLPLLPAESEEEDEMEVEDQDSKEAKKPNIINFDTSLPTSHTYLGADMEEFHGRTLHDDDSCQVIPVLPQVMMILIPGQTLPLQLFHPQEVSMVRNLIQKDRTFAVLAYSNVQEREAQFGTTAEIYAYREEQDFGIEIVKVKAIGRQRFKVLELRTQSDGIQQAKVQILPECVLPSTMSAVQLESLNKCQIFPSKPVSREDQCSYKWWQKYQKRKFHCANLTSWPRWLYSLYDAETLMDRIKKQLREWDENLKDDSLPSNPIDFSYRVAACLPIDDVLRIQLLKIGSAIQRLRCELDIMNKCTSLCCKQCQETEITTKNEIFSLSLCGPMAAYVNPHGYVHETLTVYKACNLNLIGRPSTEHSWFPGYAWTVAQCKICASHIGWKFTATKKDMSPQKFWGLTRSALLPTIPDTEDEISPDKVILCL
Sequence of IKZF2 (Helios) (Q16531 whole entry partner): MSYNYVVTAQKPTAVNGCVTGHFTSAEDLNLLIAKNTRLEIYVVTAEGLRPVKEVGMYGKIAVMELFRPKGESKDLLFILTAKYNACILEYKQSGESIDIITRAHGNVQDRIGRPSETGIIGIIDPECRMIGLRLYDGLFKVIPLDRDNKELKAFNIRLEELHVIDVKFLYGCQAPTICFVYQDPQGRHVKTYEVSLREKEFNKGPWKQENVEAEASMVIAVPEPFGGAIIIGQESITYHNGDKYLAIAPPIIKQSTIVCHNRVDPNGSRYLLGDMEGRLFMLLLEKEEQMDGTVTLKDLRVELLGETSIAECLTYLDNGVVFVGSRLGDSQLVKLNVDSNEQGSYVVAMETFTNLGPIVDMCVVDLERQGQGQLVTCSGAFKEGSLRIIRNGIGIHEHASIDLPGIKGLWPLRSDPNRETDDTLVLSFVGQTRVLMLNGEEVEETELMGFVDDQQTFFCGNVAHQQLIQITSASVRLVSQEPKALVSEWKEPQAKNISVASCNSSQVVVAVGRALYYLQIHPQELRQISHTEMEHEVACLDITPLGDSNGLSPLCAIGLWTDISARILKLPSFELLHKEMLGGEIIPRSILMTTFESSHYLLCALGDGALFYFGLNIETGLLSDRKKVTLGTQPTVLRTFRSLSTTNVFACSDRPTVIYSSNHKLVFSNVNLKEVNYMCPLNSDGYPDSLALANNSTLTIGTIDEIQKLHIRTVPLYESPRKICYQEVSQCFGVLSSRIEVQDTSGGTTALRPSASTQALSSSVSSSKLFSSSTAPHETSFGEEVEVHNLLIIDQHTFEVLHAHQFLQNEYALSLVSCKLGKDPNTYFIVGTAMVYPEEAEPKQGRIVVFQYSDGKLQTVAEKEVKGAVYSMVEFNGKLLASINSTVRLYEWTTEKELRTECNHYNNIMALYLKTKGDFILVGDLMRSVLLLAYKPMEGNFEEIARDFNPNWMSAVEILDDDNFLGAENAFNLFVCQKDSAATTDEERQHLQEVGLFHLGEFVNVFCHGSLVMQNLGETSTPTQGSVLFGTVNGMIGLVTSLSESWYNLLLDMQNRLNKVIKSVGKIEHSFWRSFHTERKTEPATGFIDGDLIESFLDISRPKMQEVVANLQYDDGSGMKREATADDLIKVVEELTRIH

The first experiment has as its target IKZF2 (Helios) (Homo sapiens, UniProt Q96SW2+Q9UKS7). The experiment can be described thus: Prolabel quantification of IKZF2 protein levels in 293GT cells. Type of experiment: cell-based. The note with it: 24 h, Pro-label assay, 293GT cells, 10 μM, read-out: IKZF2 % protein reduction at 10 μM, 24 h.
In the case of `O=C1CCC(N2Cc3cc(O[C@H]4CCC[C@@H]4N4CC5CCC(C5)C4)ccc3C2=O)C(=O)N1` (stereo partly drawn) [I-16, 3-(5-(((1S,2S)-2-(3-azabicyclo[3.2.1]octan-3-yl)cyclopentyl)oxy)-1-oxoisoindolin-2-yl)piperidine-2,6-dione], the IKZF2 % protein reduction at 10 µM was determined as 85%.

With `O=C1CCC(N2Cc3cc(O[C@H]4CCC[C@@H]4N4CCC(O)CC4)ccc3C2=O)C(=O)N1` (stereo partly drawn) [I-96, 3-(5-(((1S,2S)-2-(4-hydroxypiperidin-1-yl)cyclopentyl)oxy)-1-oxoisoindolin-2-yl)piperidine-2,6-dione], the IKZF2 % protein reduction at 10 µM came out at 81%. On to `O=C1CCC(N2Cc3cc(O[C@H]4CCCC[C@@H]4N4CC(Oc5cccnc5)C4)ccc3C2=O)C(=O)N1` (stereo partly drawn) [I-135, 3-(1-oxo-5-(((1S,2S)-2-(3-(pyridin-3-yloxy)azetidin-1-yl)cyclohexyl)oxy)isoindolin-2-yl)piperidine-2,6-dione], for which the IKZF2 % protein reduction at 10 µM was 92%. On the same count and under the same terms, under `O=C1CCC(N2Cc3cc(O[C@H]4CCCC[C@@H]4NCc4cncnc4)ccc3C2=O)C(=O)N1` (stereo partly drawn) [I-103, 3-(1-oxo-5-(((1S,2S)-2-((pyrimidin-5-ylmethyl)amino)cyclohexyl)oxy)isoindolin-2-yl)piperidine-2,6-dione] stands 54%; under `O=C1CCC(N2Cc3cc(O[C@H]4CCCC[C@@H]4N4CCC5(CC4)COC5)ccc3C2=O)C(=O)N1` (stereo partly drawn) [I-105, 3-(5-(((1S,2S)-2-(2-oxa-7-azaspiro[3.5]nonan-7-yl)cyclohexyl)oxy)-1-oxoisoindolin-2-yl)piperidine-2,6-dione], 52%; under `CN[C@H]1CCCC[C@@H]1Oc1ccc2c(c1)CN(C1CCC(=O)NC1=O)C2=O` (stereo partly drawn) [I-36, 3-(5-(((1S,2S)-2-(methylamino)cyclohexyl)oxy)-1-oxoisoindolin-2-yl)piperidine-2,6-dione], 80%. In the case of `O=C1CCC(N2Cc3cc(O[C@H]4CCCC[C@@H]4N4CC(OCC(F)(F)F)C4)ccc3C2=O)C(=O)N1` (stereo partly drawn) [I-49, 3-(1-oxo-5-(((1S,2S)-2-(3-(2,2,2-trifluoroethoxy)azetidin-1-yl)cyclohexyl)oxy)isoindolin-2-yl)piperidine-2,6-dione], the IKZF2 % protein reduction at 10 µM was determined as 86%.

`COC1CC(CNC2CCCCC2Oc2ccc3c(c2)CN(C2CCC(=O)NC2=O)C3=O)C1` (single isomer, unassigned) [I-99]: the IKZF2 % protein reduction at 10 µM turned out to be 86%.

Take `O=C1CCC(N2Cc3cc(O[C@H]4CCCC[C@@H]4NCC4(C(F)(F)F)CC4)ccc3C2=O)C(=O)N1` (stereo partly drawn) [I-11, 3-(1-oxo-5-(((1S,2S)-2-(((1-(trifluoromethyl)cyclopropyl)methyl)amino)cyclohexyl)oxy)isoindolin-2-yl)piperidine-2,6-dione]: the IKZF2 % protein reduction at 10 µM was found to be 75%. With `O=C1CCC(N2Cc3cc(OC4CCCC4N4CCCC5(CCC5)C4)ccc3C2=O)C(=O)N1` (single isomer, unassigned) [I-179, 3-(5-((2-(6-azaspiro[3.5]nonan-6-yl)cyclopentyl)oxy)-1-oxoisoindolin-2-yl)piperidine-2,6-dione], the IKZF2 % protein reduction at 10 µM was 85%. The same measure, in the same setting: under `O=C1CCC(N2Cc3cc(O[C@H]4CCC[C@@H]4N4CCCOCCC4)ccc3C2=O)C(=O)N1` (stereo partly drawn) [I-167, 3-(5-(((1S,2S)-2-(1,5-oxazocan-5-yl)cyclopentyl)oxy)-1-oxoisoindolin-2-yl)piperidine-2,6-dione] stands 75%. Still for that read-out and setting: for `N#Cc1ccc(CN[C@H]2CCCC[C@@H]2Oc2ccc3c(c2)CN(C2CCC(=O)NC2=O)C3=O)cc1` (stereo partly drawn) [I-129, 4-((((1S,2S)-2-((2-(2,6-dioxopiperidin-3-yl)-1-oxoisoindolin-5-yl)oxy)cyclohexyl)amino)methyl)benzonitrile] the value was 70%; for `COC1(CN[C@H]2CCCC[C@@H]2Oc2ccc3c(c2)CN(C2CCC(=O)NC2=O)C3=O)CCOCC1` (stereo partly drawn) [I-106, 3-(5-(((1S,2S)-2-(((4-methoxytetrahydro-2H-pyran-4-yl)methyl)amino)cyclohexyl)oxy)-1-oxoisoindolin-2-yl)piperidine-2,6-dione], 51%.

`CCN(CC)[C@@H]1CCC[C@@H]1Oc1ccc2c(c1)CN(C1CCC(=O)NC1=O)C2=O` (stereo partly drawn) [I-10, 3-(5-(((1S,2R)-2-(diethylamino)cyclopentyl)oxy)-1-oxoisoindolin-2-yl)piperidine-2,6-dione]: the IKZF2 % protein reduction at 10 µM was determined as 0%. For `O=C1CCC(N2Cc3cc(O[C@@H]4CCC[C@H]4O)ccc3C2=O)C(=O)N1` (stereo partly drawn) [I-6, 3-(5-(((1R,2R)-2-hydroxycyclopentyl)oxy)-1-oxoisoindolin-2-yl)piperidine-2,6-dione], the IKZF2 % protein reduction at 10 µM is 5%. On the same count and under the same terms, under `CO[C@H]1CC[C@@H](CN[C@H]2CCC[C@@H]2Oc2ccc3c(c2)CN(C2CCC(=O)NC2=O)C3=O)CC1` (stereo partly drawn) [I-191, 3-(5-(((1S,2S)-2-((((1s,4R)-4-methoxycyclohexyl)methyl)amino)cyclopentyl)oxy)-1-oxoisoindolin-2-yl)piperidine-2,6-dione] stands 83%; under `CCCN[C@H]1CCCC[C@@H]1Oc1ccc2c(c1)CN(C1CCC(=O)NC1=O)C2=O` (stereo partly drawn) [I-71, 3-(1-oxo-5-(((1S,2S)-2-(propylamino)cyclohexyl)oxy)isoindolin-2-yl)piperidine-2,6-dione], 88%. In the case of `CCN(C(C)C)[C@H]1CCC[C@@H]1Oc1ccc2c(c1)CN(C1CCC(=O)NC1=O)C2=O` (stereo partly drawn) [I-25, 3-(5-(((1S,2S)-2-(ethyl(isopropyl)amino)cyclopentyl)oxy)-1-oxoisoindolin-2-yl)piperidine-2,6-dione], the IKZF2 % protein reduction at 10 µM came out at 80%. In the case of `CO[C@H]1CCN(C2CCCC2Oc2ccc3c(c2)CN(C2CCC(=O)NC2=O)C3=O)C1` (single isomer, unassigned) [I-193], the IKZF2 % protein reduction at 10 µM was 79%. On to `O=C1CCC(N2Cc3cc(O[C@H]4CCCC[C@@H]4NCC4CCOCC4)ccc3C2=O)C(=O)N1` (stereo partly drawn) [I-98, 3-(1-oxo-5-(((1S,2S)-2-(((tetrahydro-2H-pyran-4-yl)methyl)amino)cyclohexyl)oxy)isoindolin-2-yl)piperidine-2,6-dione], for which the IKZF2 % protein reduction at 10 µM was 80%.

Turning to `O=C1CCC(N2Cc3cc(O[C@H]4CCCC[C@@H]4N4CCCCC4)ccc3C2=O)C(=O)N1` (stereo partly drawn) [I-97, 3-(1-oxo-5-(((1S,2S)-2-(piperidin-1-yl)cyclohexyl)oxy)isoindolin-2-yl)piperidine-2,6-dione], the IKZF2 % protein reduction at 10 µM was 36%.

Turning to `CCN(CC12CC(F)(C1)C2)[C@H]1CCC[C@@H]1Oc1ccc2c(c1)CN(C1CCC(=O)NC1=O)C2=O` (stereo partly drawn) [I-136, 3-(5-(((1S,2S)-2-(ethyl((3-fluorobicyclo[1.1.1]pentan-1-yl)methyl)amino)cyclopentyl)oxy)-1-oxoisoindolin-2-yl)piperidine-2,6-dione], the IKZF2 % protein reduction at 10 µM worked out at 58%. For `CO[C@H]1CC[C@H](CN(C)[C@H]2CCC[C@@H]2Oc2ccc3c(c2)CN(C2CCC(=O)NC2=O)C3=O)CC1` (stereo partly drawn) [I-171, 3-(5-(((1S,2S)-2-((((1R,4S)-4-methoxycyclohexyl)methyl)(methyl)amino)cyclopentyl)oxy)-1-oxoisoindolin-2-yl)piperidine-2,6-dione], the IKZF2 % protein reduction at 10 µM came to 74%. Take `CCN(CC)C1CC(C)(C)CC1Oc1ccc2c(c1)CN(C1CCC(=O)NC1=O)C2=O` (mixture of isomers) [I-172, Mixture of 3-(5-(((1S,2S)-2-(diethylamino)-4,4-dimethylcyclopentyl)oxy)-1-oxoisoindolin-2-yl)piperidine-2,6-dione and 3-(5-(((1R,2R)-2-(diethylamino)-4,4-dimethylcyclopentyl)oxy)-1-oxoisoindolin-2-yl)piperidine-2,6-dione]: the IKZF2 % protein reduction at 10 µM amounted to 58%.

Staying with this experiment, now noted: 24 h, read-out: IKZF2 % protein reduction at 10 μM, 24 h.
Consider `O=C1CCC(N2Cc3cc(O[C@H]4CCC[C@@H]4NCc4cccnc4)ccc3C2=O)C(=O)N1` (stereo partly drawn) [I-150, 3-(1-oxo-5-(((1S,2S)-2-((pyridin-3-ylmethyl)amino)cyclopentyl)oxy)isoindolin-2-yl)piperidine-2,6-dione], for which the IKZF2 % protein reduction at 10 µM was determined as 51%.

Consider `CCn1cc(CN[C@H]2CCCC[C@@H]2Oc2ccc3c(c2)CN(C2CCC(=O)NC2=O)C3=O)cn1` (stereo partly drawn) [I-76, 3-(5-(((1S,2S)-2-(((1-ethyl-1H-pyrazol-4-yl)methyl)amino)cyclohexyl)oxy)-1-oxoisoindolin-2-yl)piperidine-2,6-dione], for which the IKZF2 % protein reduction at 10 µM worked out at 79%. Regarding `O=C1CCC(N2Cc3cc(O[C@H]4CCC[C@@H]4N4C[C@@H]5[C@H](C4)[C@H]4CC[C@@H]5O4)ccc3C2=O)C(=O)N1` (stereo partly drawn) [I-188, 3-(5-(((1S,2S)-2-((3aR,4R,7S,7aS)-octahydro-2H-4,7-epoxyisoindol-2-yl)cyclopentyl)oxy)-1-oxoisoindolin-2-yl)piperidine-2,6-dione], the IKZF2 % protein reduction at 10 µM was determined as 70%. Regarding `Cc1cccc(CN[C@H]2CCCC[C@@H]2Oc2ccc3c(c2)CN(C2CCC(=O)NC2=O)C3=O)n1` (stereo partly drawn) [I-90, 3-(5-(((1S,2S)-2-(((6-methylpyridin-2-yl)methyl)amino)cyclohexyl)oxy)-1-oxoisoindolin-2-yl)piperidine-2,6-dione], the IKZF2 % protein reduction at 10 µM stood at 57%. With `CCOC1CCN([C@H]2CCC[C@@H]2Oc2ccc3c(c2)CN(C2CCC(=O)NC2=O)C3=O)CC1` (stereo partly drawn) [I-189, 3-(5-(((1S,2S)-2-(4-ethoxypiperidin-1-yl)cyclopentyl)oxy)-1-oxoisoindolin-2-yl)piperidine-2,6-dione], the IKZF2 % protein reduction at 10 µM worked out at 70%. Take `O=C1CCC(N2Cc3cc(O[C@H]4CCC[C@@H]4N4CCSCC4)ccc3C2=O)C(=O)N1` (stereo in doubt) [I-184, 3-(1-oxo-5-(((1S,2S)-2-thiomorpholinocyclopentyl)oxy)isoindolin-2-yl)piperidine-2,6-dione]: the IKZF2 % protein reduction at 10 µM turned out to be 38%. As to `CC(C)OC1CCN([C@H]2CCC[C@@H]2Oc2ccc3c(c2)CN(C2CCC(=O)NC2=O)C3=O)CC1` (stereo partly drawn) [I-187, 3-(5-(((1S,2S)-2-(4-isopropoxypiperidin-1-yl)cyclopentyl)oxy)-1-oxoisoindolin-2-yl)piperidine-2,6-dione], the IKZF2 % protein reduction at 10 µM was 79%.
